Measured values: ChEMBL document CHEMBL1201862, “PubChem BioAssay data set” (2004)
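These data come from cells grown in 96-well plates and exposed to compound for 48 hours at five concentrations. GI50 is the concentration that inhibits growth by half.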 Active and inactive are the calls of the source. Cut-off read from the data, not from the text of the source: active = GI50 up to about 1.1 µM and inactive = higher.

Assays:
Experiment in all cases: inhibition of tumour cell growth, NCI panel, 48 h
MOLT-4 = tested on: MOLT-4
SNB-75 = tested on: SNB-75
MDA-N = tested on: MDA-N
NCI-H226 = tested on: NCI-H226
SF-539 = tested on: SF-539
OVCAR-8 = tested on: OVCAR-8
SW-620 = tested on: SW-620
A498 = tested on: A498
HOP-62 = tested on: HOP-62
NCI-H460 = tested on: NCI-H460
MCF7 = tested on: MCF7
LOX IMVI = tested on: LOX IMVI
ACHN = tested on: ACHN
SK-OV-3 = tested on: SK-OV-3
IGROV-1 = tested on: IGROV-1
Malme-3M = tested on: Malme-3M
M14 = tested on: M14
SN12C = tested on: SN12C
HCC 2998 = tested on: HCC 2998
UACC-257 = tested on: UACC-257

Measured: GI50

CCOC(=O)[C@H]1C[C@]23CN(C(=O)OC(C)(C)C)CC[C@H]2CCC2(SCCCS2)[C@@H]3N1C
inactive: MOLT-4 24.3 µM | SNB-75 72.9 µM | MDA-N 30.1 µM | NCI-H226 29.6 µM | SF-539 29.6 µM | OVCAR-8 37.8 µM | SW-620 47.8 µM | A498 52.2 µM | HOP-62 39.9 µM | NCI-H460 33.3 µM | MCF7 38.7 µM | LOX IMVI 30.9 µM | ACHN 40.9 µM | SK-OV-3 > 100 µM | IGROV-1 49.9 µM | Malme-3M 28.4 µM | M14 30.8 µM | SN12C 21.3 µM | HCC 2998 22.8 µM | UACC-257 25.6 µM

O=c1cc(-c2ccccc2)oc2ccc(Oc3nnnn3-c3ccccc3)cc12
inactive: MOLT-4 > 100 µM | SNB-75 47.3 µM | MDA-N 5.15 µM | NCI-H226 25 µM | SF-539 27.7 µM | OVCAR-8 42 µM | SW-620 > 100 µM | A498 90.2 µM | HOP-62 29.4 µM | NCI-H460 > 100 µM | MCF7 > 45.9 µM | LOX IMVI > 42.7 µM | ACHN > 64.4 µM | SK-OV-3 > 65.3 µM | IGROV-1 > 75.5 µM | Malme-3M > 100 µM | M14 > 100 µM | SN12C > 42.3 µM | HCC 2998 > 100 µM | UACC-257 > 100 µM

O=C1Oc2ccccc2C(=O)/C1=C\Nc1nc(-c2ccccc2)cs1
inactive: MOLT-4 2.28 µM | SNB-75 5.86 µM | MDA-N 4.85 µM | NCI-H226 3.24 µM | SF-539 2.94 µM | OVCAR-8 8 µM | SW-620 3.31 µM | A498 27.7 µM | HOP-62 23.4 µM | NCI-H460 > 100 µM | MCF7 4.07 µM | LOX IMVI 5.2 µM | ACHN 11.2 µM | SK-OV-3 33.4 µM | IGROV-1 12.3 µM | Malme-3M 11.6 µM | M14 4.53 µM | SN12C 7.08 µM | HCC 2998 51.4 µM | UACC-257 10.5 µM

CCCCCCCCCCCCCCCCCCOP1(=O)OCCO1
inactive: MOLT-4 40.7 µM | SNB-75 > 100 µM | MDA-N > 100 µM | NCI-H226 > 100 µM | SF-539 > 100 µM | OVCAR-8 > 100 µM | SW-620 > 100 µM | A498 > 100 µM | HOP-62 79.1 µM | MCF7 > 100 µM | LOX IMVI 52.1 µM | ACHN > 100 µM | SK-OV-3 > 100 µM | IGROV-1 > 100 µM | Malme-3M > 100 µM | M14 > 100 µM | SN12C > 100 µM | HCC 2998 47.2 µM | UACC-257 > 100 µM

C=C1c2ccccc2Oc2nc3nc(N)c(C#N)c(N)c3c(N)c21
inactive: MOLT-4 23.7 µM | SNB-75 24.5 µM | MDA-N 38.4 µM | NCI-H226 20.1 µM | SF-539 20 µM | OVCAR-8 16.4 µM | SW-620 30.5 µM | A498 > 100 µM | HOP-62 19.1 µM | NCI-H460 16 µM | MCF7 14.6 µM | LOX IMVI 24.5 µM | ACHN 40.5 µM | SK-OV-3 24.1 µM | IGROV-1 2.39 µM | Malme-3M 22.8 µM | M14 29.6 µM | SN12C 37.6 µM | HCC 2998 19.5 µM | UACC-257 53.1 µM

C=CC(CCc1ccc(C(=O)OCC)cc1)c1c(N)nc(N)[nH]c1=O (configuration not stated)
inactive: MOLT-4 59.4 µM | SNB-75 47.8 µM | MDA-N 76.6 µM | NCI-H226 84.9 µM | SF-539 > 100 µM | OVCAR-8 95.1 µM | SW-620 > 100 µM | A498 21.2 µM | HOP-62 > 100 µM | NCI-H460 > 100 µM | MCF7 87.7 µM | LOX IMVI 45.3 µM | SK-OV-3 > 100 µM | IGROV-1 > 100 µM | Malme-3M 89.9 µM | M14 > 100 µM | SN12C > 100 µM | HCC 2998 > 100 µM | UACC-257 35.1 µM

CC(C)=CCC[C@](C)(O[C@@H]1O[C@H](CO)[C@@H](O)[C@H](O)[C@H]1O)[C@H]1CC[C@]2(C)[C@@H]1[C@H](O)C[C@@H]1[C@@]3(C)CC[C@H](O)C(C)(C)[C@@H]3[C@@H](O[C@@H]3O[C@H](CO)[C@@H](O)[C@H](O)[C@H]3O)C[C@]12C [GINSENOSIDE RG1]
inactive: SNB-75 > 100 µM | MDA-N > 100 µM | NCI-H226 > 100 µM | SF-539 > 100 µM | OVCAR-8 > 100 µM | SW-620 > 100 µM | A498 > 100 µM | HOP-62 > 100 µM | NCI-H460 > 100 µM | MCF7 > 100 µM | LOX IMVI > 100 µM | ACHN > 100 µM | SK-OV-3 > 100 µM | IGROV-1 > 100 µM | Malme-3M > 100 µM | M14 > 100 µM | SN12C > 100 µM | HCC 2998 > 100 µM | UACC-257 > 100 µM
